Data on nine molecules can be found in US12180174B2, “A2-73 crystalline polymorph compositions of matter and methods of use thereof” (ANAVEX LIFE SCIENCES CORP., priority 2018, dated 2024).

A short description of data set [1]: Solid form stability (storage, drying). Type of data set: physicochemical.
A short description of a further data set: Solubility at defined pH. It counts as physicochemical.
Data set [2] in a line: pH of a saturated solution. The note with it: saturated solution in water. It counts as physicochemical.
The nature of data set [3]: Hygroscopicity / gravimetric vapor sorption (GVS). It counts as physicochemical. The note with it: for water uptake (GVS): 90% RH. The protocol:
This is confirmed by gravimetric vapor sorption (GVS) analysis, showing minimal water update (0.3% w/w) up to 90% RH. […] (peak temperature at ca. 91° C.). Upon further heating, Form I appears to sublime, beginning above ca. 120° C. with a weight loss of ca. 99% observed by 212.6° C. ^1H NMR spectra and HPLC-MS results were consistent with the structure of A2-73 freebase. […] FIG. 15 is a […]polarized-light microscopy (PLM) of Freebase Form I. XRPD pattern of Anavex2-73 freebase Form I obtained using copper Ka radiation is shown in FIG. 16.

Data set [4] in a line: Solvent solubility screen. Type of data set: physicochemical. The note with it: for solubility: read-out: Approx. Solubility.
For data set [5], the system named is unspecified progressive dementia. In words: Cognitive function of patients with unspecified progressive dementia, enteric coated tablet. Type of data set: in vivo, human. The note with it: 180 days. As for the experimental part:
A person with unspecified progressive dementia is administered 30 mg of […]2-73 fumarate in an enteric coated tablet every other day for 180 days. Blood levels reveal about 25 mg per day are being administered. […] A person with unspecified progressive dementia is administered 50 mg of […]2-73 freebase in an enteric coated tablet every other day for 180 days. Blood levels reveal about 20 mg per day are being administered.

In the next data set the test system is Alzheimer's disease. In words: Cognitive function of patients with Alzheimer's disease, transdermal patch. Type of data set: in vivo, human. As for the experimental part:
A person presents with early signs of Alzheimer's disease. They are administered a pharmaceutical composition via transdermal patch containing 100 mg […]2-73 freebase with a 4 cm2 patch replaced approximately every three days administration for 120 days. Blood levels of about 10 ng/ml are being maintained. […] A person presents with signs of early onset Alzheimer's disease. They are administered via a 9 cm2 transdermal patch containing a pharmaceutical composition containing 200 mg […]2-73 freebase with the patch replaced weekly for 180 days. Blood levels of about 12 ng/ml are being maintained.

Data set [6] can be described thus: Blood levels in patients on extended release dosage forms. It counts as in vivo, human. The note with it: person. The protocol: A person presents with early signs of Alzheimer's disease. They are administered a pharmaceutical composition via transdermal patch containing 100 mg ANAVEX2-73 freebase with a 4 cm2 patch replaced approximately every three days administration for 120 days. Blood levels of about 10 ng/ml are being maintained.
A person presents with signs of early onset Alzheimer's disease. They are administered via a 9 cm2 transdermal patch containing a pharmaceutical composition containing 200 mg ANAVEX2-73 freebase with the patch replaced weekly for 180 days. Blood levels of about 12 ng/ml are being maintained.
A person with unspecified progressive dementia is administered 30 mg of ANAVEX2-73 fumarate in an enteric coated tablet every other day for 180 days. Blood levels reveal about 25 mg per day are being administered.
A person with unspecified progressive dementia is administered 50 mg of ANAVEX2-73 freebase in an enteric coated tablet every other day for 180 days. Blood levels reveal about 20 mg per day are being administered.

The test system of another data set is ULK1. As to the kind of experiment: ULK1 serine 555 phosphorylation, Western blot. It counts as cell-based, human. The note with it: 1 μM; HeLa cells. An excerpt:
Activation of the serine/threonine protein kinase ULK1 (unc-51-like kinase 1) via phosphorylation at serine 555 indicates stimulation of the canonical autophagy pathway. […] It has to be mentioned that this activating ULK1 phosphorylation can be inhibited by mTOR as well as stimulated via AMPK kinase. Both are basal physiological sensors of nutritional conditions and key signal transducers of canonical autophagy stimulation. ULK1 is in fact the signal mediating the induction of the formation of the phagophore during the autophagy process and, therefore, a central promoter of autophagy. ULK1 itself functions in a complex with at least three protein partners: FI P200 (focal adhesion kinase family interacting protein of 200 kDa), ATG (autophagy-related protein) 13 (ATG13), and ATG101.
Cell culture and microscopy. HeLa and HEK293A cells were cultured in DMEM (Invitrogen, Carlsbad, CA, USA, 41965062) supplemented with active FBS (Life Technologies GmbH, Carlsbad, CA, USA, 10270106), 1×ABAM (Invitrogen, 15240-062) and 1 mM sodium pyruvate (Invitrogen, 1136-088). […] Proteins were detected by chemiluminescence using the Amersham Imager 600 (GE). Confocal fluorescence microscopical analyses of HEK293A cells stably expressing GFP-LC3B were performed with the laser scanning microscope LSM 710 (Zeiss, Oberkochen).
(In general: Immunoblotting shows a protein as a band on a membrane.)

In another data set the test system is HeLa cells. In words: LC3-II autophagic flux, Western blot with Bafilomycin A1. Type of data set: cell-based, human. The note with it: 1 μM, BafiA1 2 μM, vs control. The protocol: To study the effect of ANAVEX2-73 on autophagy, human HeLa cells were treated with the compound and autophagic activity was analyzed by investigating the flux of LC3-II. LC3-II is the lipidated form of LC3, which (partially) stays attached to autophagosomes and thus, gets degraded by lysosomes. Therefore, the quantification of the LC3-II flux, using Bafilomycin AI (BafiAi; 2 μM) for inhibition of lysosomal degradation, directly corresponds to cellular autophagic activity. […] There is a concentration-dependent and significant increase in the autophagic-flux following application of ANAVEX2-73: an increase of over 2-fold at 10 μM and over 1.5-fold at 1 μM ANAVEX2-73 (FIG. 35A). As standard positive control to provoke the induction of autophagy, HeLa cells were incubated with EBSS, which resembles nutrient deprivation as autophagy stimulus.
Cell culture and microscopy. HeLa and HEK293A cells were cultured in DMEM (Invitrogen, Carlsbad, CA, USA, 41965062) supplemented with active FBS (Life Technologies GmbH, Carlsbad, CA, USA, 10270106), 1×ABAM (Invitrogen, 15240-062) and 1 mM sodium pyruvate (Invitrogen, 1136-088). After medium change, the cells were treated for 2 h with 10, 1, and 0.1 μM ANAVEX2-73 and PRE-084 (Tocris, Bristol, UK, 0589), respectively; ANAVEX2-73 was provided by ANAVEX Life Sciences Corp, New York, NY, USA. Afterwards Bafilomycin A1 (Bafi.Ai; 2 μM) (Toronto Research Chemicals, North York, ON, Canada, B110000) or DMSO was added for a further 2 h and the cells were eventually harvested. Western blot analyses were performed as described previously. Briefly, cells were subjected to SDS-PAGE using precast NuPAGE 4%-12% Bis-Tris gels (Invitrogen, NP0322). Proteins were detected by chemiluminescence using the Amersham Imager 600 (GE). Confocal fluorescence microscopical analyses of HEK293A cells stably expressing GFP-LC3B were performed with the laser scanning microscope LSM 710 (Zeiss, Oberkochen).

Counter-ions that a name gives are not always drawn. Like-named read-outs stand apart in the source and are kept apart here.

In the case of `CN(C)CC1CCOC1(c1ccccc1)c1ccccc1.Cl` (racemic) [Form VIII, tetrahydro-N,N-dimethyl-2,2-diphenyl-3-furanmethanamine hydrochloride], the “form stability on drying” value in data set [1] (dried after isolation wet with water) is “once dried, it converts to Form I”.

For orientation: solubility means how much of the substance goes into solution per volume. In the case of `CN(C)CC1CCOC1(c1ccccc1)c1ccccc1` (centres unmarked) [A2-73 dihydrogen phosphate Form I, tetrahydro-N,N-dimethyl-2,2-diphenyl-3-furanmethanamine], the solubility is around 47.2 mg/mL in “Solubility at defined pH” (pH 1.2, simulated gastric fluid, pH 1.2, read-out: solubility) and around 33.1 mg/mL in the data set “Solubility at defined pH” (pH 4.5). Also, the “pH of a saturated solution” value in [2] was 2.66. Also, in data set [3], the hygroscopicity entry is “hygroscopic”.

With `CN(C)CC1CCOC1(c1ccccc1)c1ccccc1` (centres unmarked) [A2-73 freebase Form I, tetrahydro-N,N-dimethyl-2,2-diphenyl-3-furanmethanamine], the solubility in [4] (1,4-dioxane, organic solvent or mixture) was at least 200 mg/mL; in [4] (1-butanol, organic solvent or mixture), at least 200 mg/mL; in [4] (2-butanone, organic solvent or mixture), at least 200 mg/mL; in data set [4] (N,N′-dimethylformamide, organic solvent or mixture), at least 200 mg/mL; in data set [4] (acetone, organic solvent or mixture), at least 200 mg/mL; in data set [4] (cyclohexane, organic solvent or mixture), at least 200 mg/mL. Also, the solubility in data set [4] (dimethyl sulfoxide, organic solvent or mixture) is at least 200 mg/mL; in data set [4] (heptane, organic solvent or mixture), at least 200 mg/mL; in data set [4] (methyl acetate, organic solvent or mixture), at least 200 mg/mL; in data set [4] (methyl isobutyl ketone, organic solvent or mixture), at least 200 mg/mL; in data set [4] (nitromethane, organic solvent or mixture), at least 200 mg/mL; in [4] (tetrahydrofuran, organic solvent or mixture) it was at least 200 mg/mL. Moreover, the solubility in data set [4] (water) is below 5 mg/mL. The “solubility in the solvents tested (summary)” value in data set [4] (all solvents of Table 10) is “high solubility in all solvents tested, except water”. In “Solubility at defined pH” (water), the water solubility result is listed as “not highly water soluble”. In addition, the cognitive function entry is given as “stabilizes during that period with no additional loss detected” in data set [5] (50 mg enteric coated tablet every other day); “stabilizes during that period with no additional loss detected” in the data set on Alzheimer's disease (early onset Alzheimer's disease, patch 200 mg, 9 cm2, weekly, 180 days); “stabilizes during that period, with no additional loss detected” in the data set with Alzheimer's disease (early signs of Alzheimer's disease, patch 100 mg, 4 cm2, every three days, 120 days). The hygroscopicity result in data set [3] is given as “non-hygroscopic”. Further, in [3], the “water uptake (GVS)” value was determined as 0.3 % w/w. In addition, the “XRPD analysis post-GVS” value in data set [3] (post-GVS) was “no change in form”. Further, in data set [6] (50 mg enteric coated tablet every other day, 180 days), the “amount administered per day as revealed by blood levels” value is recorded as “about 20 mg per day”. In addition, the blood levels maintained result is “about 10 ng/ml” in [6] (transdermal patch 100 mg, 4 cm2, replaced approximately every three days, 120 days) and “about 12 ng/ml” in data set [6] (transdermal patch 200 mg, 9 cm2, replaced weekly, 180 days).

Take `CN(C)CC1CCOC1(c1ccccc1)c1ccccc1` (centres unmarked) [A2-73 hydrogen fumarate Form III, tetrahydro-N,N-dimethyl-2,2-diphenyl-3-furanmethanamine]: the “solubility at GI pH” value in the data set “Solubility at defined pH” (GI pH) is “lower solubility”. Also, in the data set “Solubility at defined pH” (gastric pH (generally about 1.5 to 3.5)), the “solubility at gastric pH” value was “moderate solubility”. Besides, the solubility result in “Solubility at defined pH” (pH 1.2) is “ca. 43.0 mg/mL”; in the data set “Solubility at defined pH” (pH 4.5), around 4.1 mg/mL; in the data set “Solubility at defined pH” (pH 6.8, aqueous buffer, pH 6.8, read-out: solubility) it was around 12.6 mg/mL. Further, the “pH of a saturated solution” value in data set [2] is 3.61. Besides, the hygroscopicity entry in data set [3] is on record as “slightly hygroscopic”. Besides, the “water uptake (GVS)” value in data set [3] is reported as “ca. 0.9 % w/w”.

In the case of `CN(C)CC1CCOC1(c1ccccc1)c1ccccc1` (centres unmarked) [A2-73 sulfate Form II, tetrahydro-N,N-dimethyl-2,2-diphenyl-3-furanmethanamine], in data set [1] (post-storage at 40° C./75% RH), the “form stability on storage” value is reported as “metastable, converting to A2-73 sulfate Form I”.

As for `CN(C)CC1CCOC1(c1ccccc1)c1ccccc1` (centres unmarked) [ANAVEX2-73 fumarate, tetrahydro-N,N-dimethyl-2,2-diphenyl-3-furanmethanamine], in data set [5] (30 mg enteric coated tablet every other day), the cognitive function entry was “stabilizes during that period with no additional loss detected”. Also, in data set [6] (30 mg enteric coated tablet every other day, 180 days), the “amount administered per day as revealed by blood levels” value is “about 25 mg per day”.

With `CN(C)CC1CCOC1(c1ccccc1)c1ccccc1.Cl` (centres unmarked) [Form II, tetrahydro-N,N-dimethyl-2,2-diphenyl-3-furanmethanamine hydrochloride], the hygroscopicity entry in data set [3] (hydrochloride) is on record as “slightly hygroscopic”.

As for `CN(C)CC1CCOC1(c1ccccc1)c1ccccc1.Cl` (centres unmarked) [Form III, tetrahydro-N,N-dimethyl-2,2-diphenyl-3-furanmethanamine hydrochloride], the hygroscopicity entry in data set [3] (hydrochloride) is “slightly-hygroscopic”.

Turning to `O=C(OCCN1CCOCC1)C1(c2ccccc2)CCCCC1` [PRE-084, 2-morpholin-4-ylethyl 1-phenylcyclohexane-1-carboxylate, reference compound], the “ULK1 serine 555 phosphorylation” value in the data set on ULK1 is recorded as “up to 1.5 fold”. In addition, the “increase in autophagic flux (LC3-II)” value in the data set on HeLa cells is “over 1.5 fold”.
